Source: the NIST ThermoML archive (doi:10.1021/acs.jced.5b00474)

Experiment: xn = mol fraction of the nth substance listed
Details: 101 kPa, Liquid; for speed of sound: Frequency=3 MHz, Sing-around technique in a fixed-path interferometer; for mass density: Vibrating tube method

O=C1CCCN1 [2-pyrrolidinone] + CC#N
Details	mass density [kg/m3]	speed of sound [m/s]
298.15 K, x1 = 0.1025	827.196	1311.2
298.15 K, x1 = 0.1865	864.997	1337
298.15 K, x1 = 0.3069	913.434	1380.2
298.15 K, x1 = 0.3976	946.686	1414.4
298.15 K, x1 = 0.4974	979.551	1451.9
298.15 K, x1 = 0.605	1012.17	1492.9
298.15 K, x1 = 0.695	1036.85	1526.1
298.15 K, x1 = 0.7932	1061.58	1561.6
298.15 K, x1 = 0.8972	1085.63	1598.1
303.15 K, x1 = 0.1025	821.985	–
303.15 K, x1 = 0.1865	859.946	1317.8
303.15 K, x1 = 0.3069	908.581	1362.3
303.15 K, x1 = 0.3976	941.969	1396.8
303.15 K, x1 = 0.4974	974.979	1434.8
303.15 K, x1 = 0.605	1007.72	1476
303.15 K, x1 = 0.695	1032.51	1509.5
303.15 K, x1 = 0.7932	1057.33	1545.2
303.15 K, x1 = 0.8972	1081.46	1582.1
308.15 K, x1 = 0.1025	816.754	–
308.15 K, x1 = 0.1865	854.873	1298.8
308.15 K, x1 = 0.3069	903.718	1344.4
308.15 K, x1 = 0.3976	937.251	1379.3
308.15 K, x1 = 0.4974	970.394	1417.7
308.15 K, x1 = 0.695	1028.15	1492.4
308.15 K, x1 = 0.8972	1077.29	1565.9
308.16 K, x1 = 0.605	1003.27	1459.2
308.16 K, x1 = 0.7932	1053.07	1528.7
313.15 K, x1 = 0.1025	811.493	–
313.15 K, x1 = 0.1865	849.779	1280.1
313.15 K, x1 = 0.3069	898.84	1326.7
313.15 K, x1 = 0.605	998.811	1442.4
313.15 K, x1 = 0.7932	1048.82	1512.3
313.15 K, x1 = 0.8972	1073.12	1549.8
313.16 K, x1 = 0.3976	932.515	1361.9
313.16 K, x1 = 0.4974	965.8	1400.7
313.16 K, x1 = 0.695	1023.8	1475.5
318.15 K, x1 = 0.1025	806.204	–
318.15 K, x1 = 0.1865	844.673	1261.4
318.15 K, x1 = 0.3976	927.77	1344.6
318.15 K, x1 = 0.605	994.35	1425.7
318.15 K, x1 = 0.695	1019.44	1458.7
318.15 K, x1 = 0.7932	1044.56	1496.1
318.15 K, x1 = 0.8972	1068.96	1533.8
318.16 K, x1 = 0.3069	893.944	1308.8
318.16 K, x1 = 0.4974	961.2	1383.7
323.15 K, x1 = 0.8972	1064.8	1517.9
323.16 K, x1 = 0.1025	800.887	–
323.16 K, x1 = 0.1865	839.54	1242.8
323.16 K, x1 = 0.3069	889.032	1290.5
323.16 K, x1 = 0.3976	923.008	1327.3
323.16 K, x1 = 0.4974	956.587	1366.8
323.16 K, x1 = 0.605	989.88	1408.9
323.16 K, x1 = 0.695	1015.08	1441.8
323.16 K, x1 = 0.7932	1040.3	1479.9

O=C1CCCN1 [2-pyrrolidinone] + ClC(Cl)Cl
Details	mass density [kg/m3]	speed of sound [m/s]
293.15 K, x1 = 0.1002	1457.64	1033.4
293.15 K, x1 = 0.199	1424.67	1074.6
293.15 K, x1 = 0.3019	1388.18	1124.8
293.15 K, x1 = 0.4027	1351	1179
293.15 K, x1 = 0.5022	1313.31	1238.7
293.15 K, x1 = 0.697	1235.75	1374.5
293.15 K, x1 = 0.7992	1194.43	1457.3
293.15 K, x1 = 0.9	1152.99	1548.8
293.15 K, x1 = 1	1111.44	1649.3
293.16 K, x1 = 0.6054	1272.91	1307.2
295.15 K, x1 = 0.199	1421.54	–
295.15 K, x1 = 0.3019	1385.33	–
295.15 K, x1 = 0.4027	1348.4	–
295.15 K, x1 = 0.5022	1310.93	–
295.15 K, x1 = 0.6054	1270.72	–
295.15 K, x1 = 0.697	1233.71	–
295.15 K, x1 = 0.7992	1192.54	–
295.15 K, x1 = 0.9	1151.23	–
298.15 K, x1 = 0.1002	1449.07	1017.4
298.15 K, x1 = 0.199	1416.87	1059.6
298.15 K, x1 = 0.3019	1381.1	1109.8
298.15 K, x1 = 0.4027	1344.53	1164.5
298.15 K, x1 = 0.5022	1307.38	1223.7
298.15 K, x1 = 0.6054	1267.47	1292.9
298.15 K, x1 = 0.697	1230.66	1358.9
298.15 K, x1 = 1	1107.35	1632.9
298.16 K, x1 = 0.7992	1189.72	1442.2
298.16 K, x1 = 0.9	1148.6	1533.3
301.15 K, x1 = 1	1104.88	–
303.15 K, x1 = 0.1002	1440.46	1001.5
303.15 K, x1 = 0.199	1409.07	1044
303.15 K, x1 = 0.3019	1374	1094.7
303.15 K, x1 = 0.4027	1338.05	1149.5
303.15 K, x1 = 0.5022	1301.43	1208.6
303.15 K, x1 = 0.697	1225.58	1343.1
303.15 K, x1 = 0.7992	1184.99	1426.5
303.15 K, x1 = 0.9	1144.21	1517.3
303.15 K, x1 = 1	1103.26	1616.7
303.16 K, x1 = 0.6054	1262	1278.2
308.15 K, x1 = 0.1002	1431.81	985.52
308.15 K, x1 = 0.199	1401.22	1028.3
308.15 K, x1 = 0.4027	1331.55	1134.4
308.15 K, x1 = 0.5022	1295.47	1193.5
308.15 K, x1 = 0.6054	1256.52	1263.1
308.15 K, x1 = 0.697	1220.48	1327.1
308.15 K, x1 = 0.7992	1180.28	1411
308.15 K, x1 = 0.9	1139.82	1501.5
308.15 K, x1 = 1	1099.17	1600.5
308.16 K, x1 = 0.3019	1366.88	1079.5
313.15 K, x1 = 1	1095.08	1584.5
318.16 K, x1 = 1	1091	1568.6
323.16 K, x1 = 1	1086.92	1552.8
